The data set in a line: acute toxicity estimated on mice (method of MILLER and TAINTER). The following applies: mouse, in vivo, iv.

The term LD50 denotes the dose at which mortality reaches 50%. Regarding `COc1ccc(OC)c(C(=O)CCc2ccc(O)cc2)c1OCCN1CCCCC1` [compound 2], the LD50 is 14 mg/kg.

For the compound `COc1ccc(OC)c(C(O)CCc2ccccc2)c1OCCN1CCCCC1` (stereo not shown) [compound 3], the LD50 was 16 mg/kg.

With `COc1ccc(OC)c(C(O)CCc2ccc(F)cc2)c1OCCN1CCCCC1` (stereo not shown) [compound 4], the LD50 was 31 mg/kg.

Turning to `COc1ccc(OC)c(C(O)CCc2ccc(Cl)cc2)c1OCCN1CCCCC1` (stereo not shown) [compound 5], the LD50 was 33 mg/kg.

Take `COc1ccc(OC)c(C(O)CCc2ccc(C)cc2)c1OCCN1CCCCC1` (stereo not shown) [compound 6]: the LD50 was 31 mg/kg.

As for `COc1ccc(CCC(O)c2c(OC)ccc(OC)c2OCCN2CCCCC2)cc1` (stereo not shown) [compound 7], the LD50 was 27 mg/kg.

`COc1ccc(OC)c(C(O)CCc2ccccc2O)c1OCCN1CCCCC1` (stereo not shown) [compound 8]: the LD50 was 12 mg/kg.

On to `COc1ccc(OC)c(C(O)CCc2cccc(O)c2)c1OCCN1CCCCC1` (stereo not shown) [compound 9], for which the LD50 is 11 mg/kg.

Take `COc1ccc(OC)c(C(O)CCc2ccc(O)cc2)c1OCCN1CCCCC1` (stereo not shown) [compound 10]: the LD50 is 20 mg/kg.

On to `COc1ccc(OC)c(C(O)CCc2ccc(O)cc2)c1OCCCN1CCCCC1` (stereo not shown) [compound 11], for which the median lethal dose (LD50) was 22 mg/kg.

With `CCN(CC)CCOc1c(OC)ccc(OC)c1C(O)CCc1ccc(O)cc1` (stereo not shown) [compound 12], the LD50 is 23 mg/kg.

`COc1ccc(OC)c(C(O)CCc2ccc(O)cc2)c1OCCN1CCCC1` (stereo not shown) [compound 13]: the LD50 was 27 mg/kg.

`COc1cc(OC)c(C(O)CCc2ccc(O)cc2)c(OCCN2CCCCC2)c1OC` (stereo not shown) [compound 14]: the LD50 is 33 mg/kg.

Turning to `COc1cc(OC)c(CCCc2ccc(O)cc2)c(OCCN2CCCCC2)c1` [compound 60], the LD50 is 8.9 mg/kg.

With `CCCN(CCC)CCOc1c(OC)ccc(OC)c1C(O)CCc1ccc(O)cc1` (stereo not shown) [compound 62], the LD50 was 13 mg/kg.

Regarding `COc1c2c(c(OC)c(C(O)CCc3ccc(O)cc3)c1OCCN1CCCCC1)OCCO2` (stereo not shown) [compound 66], the LD50 is 15.7 mg/kg.

In the case of `COc1c(OC)c(OC)c(C(O)CCc2ccc(O)cc2)c(OCCN2CCCCC2)c1OC` (stereo not shown) [compound 67], the median lethal dose (LD50) was 32.5 mg/kg.

Consider `COc1c(OCCN2CCCCC2)c(C(O)CCc2ccc(O)cc2)c(OC)c2ccccc12` (stereo not shown) [compound 68, 3-parahydroxyphenyl 1-[3-(2-piperidino)ethoxy 1,4-dimethoxynaphtalenyl-2]propanol-1, hydrated], for which the LD50 is 12.3 mg/kg.

With `COc1cc(Cl)c(OC)c(OCCN2CCCCC2)c1C(O)CCc1ccc(O)cc1` (stereo not shown) [compound 69], the LD50 is 8.6 mg/kg.

Regarding `CCN(CC)CCOc1c(OC)c(Cl)cc(OC)c1C(O)CCc1ccc(O)cc1` (stereo not shown) [compound 70], the LD50 is 14 mg/kg.

Regarding `COc1cc(Cl)c(OC)c(OCCN(C(C)C)C(C)C)c1C(O)CCc1ccc(O)cc1` (stereo not shown) [compound 71], the LD50 was 11.5 mg/kg.

In the case of `COc1cc(F)c(OC)c(OCCN2CCCCC2)c1C(O)CCc1ccc(O)cc1` (stereo not shown) [compound 72], the LD50 was 3.4 mg/kg.

`COc1cc(Cl)c(OC)c(C(O)CCc2ccc(O)cc2)c1OCCN1CCCCC1` (stereo not shown) [compound 73]: the LD50 was 11.7 mg/kg.

As for `COc1cc([N+](=O)[O-])c(OC)c(C(O)CCc2ccc(O)cc2)c1OCCN1CCCCC1` (stereo not shown) [compound 74], the LD50 is 18.6 mg/kg.

As to `CC(C)(Cc1ccc(O)cc1)C(O)c1ccccc1OCCN1CCCCC1` (stereo not shown) [compound 77], the LD50 is 43 mg/kg.

These data come from patent publication US4831051A, “Aromatic derivatives comprising an aminoalkoxy chain, the salts thereof, the process for preparing these derivatives and salts and the application thereof in therapeutics” (Delande S.A., priority 1981, dated 1989).
